PMC12320245 (International Journal of Biological Sciences, 2025)

Tested on: primary hippocampal neurons
Assay: Scratch injury: MAP2 / NeuN immunocytochemistry
Format: cell-based, rat
Conditions: scratched neurons, 24 hours after scratch
Procedure: Primary hippocampal neurons were obtained from embryonic day 18 (E18) Sprague-Dawley rat embryos. Pregnant rats were anesthetized using 2-3% isoflurane in a gas mixture of 70% nitrous oxide and 30% oxygen. Following euthanasia, the hippocampi were carefully dissected, minced, and enzymatically dissociated using TrypLE Express (Gibco, NY, USA) for 10 minutes at 37°C. The tissue was further mechanically dissociated using fire-polished glass pipettes, and the resulting cell suspension was filtered through a 70 μm cell strainer to remove debris. Neurons were seeded at a density of 3 × 10^5 cells per well in 24-well plates pre-coated with poly-L-lysine (Sigma-Aldrich, Saint Louis, MO, USA). Cells were maintained in neurobasal medium supplemented with B-27 (Thermo Fisher Scientific, Waltham, MA, USA), GlutaMAX (Gibco), and penicillin-streptomycin. The cultures were incubated at 37.5°C in a humidified atmosphere containing 5% CO₂. After seven days of growth, neurons were fixed with 4% paraformaldehyde (PFA) for 15 minutes at room temperature and subsequently stored at 4°C until their further use for immunostaining.
A scratch injury model was used to mimic TBI in vitro. […] After the treatment period, neuronal damage and recovery were assessed using appropriate evaluation methods. […]

CC(C)c1ccc2oc3nc(N)c(C(=O)O)cc3c(=O)c2c1 [AMX, amlexanox]
MAP2 fluorescence intensity (dendritic loss): Increased MAP2 fluorescence intensity | number of NeuN-positive neurons: significantly higher
